Measurements published in patent publication US20120149660A1, “NOVEL N-SUBSTITUTED 5-HYDROXYPYROLLINDES AS INHIBITORS OF MDM2-P53 INTERACTIONS” (priority 2010, published 2012).
Where a name gives a salt, the structure may show the parent alone.

Target: interaction between p53 and MDM2 proteins (recombinant GST-tagged MDM2 / biotinylated p53 peptide) (Homo sapiens, UniProt Q00987)
Assay: HTRF (homogeneous time-resolved fluorescence) assay of p53-MDM2 interaction inhibition
Assay type: binding
Settings: bsa: 0.02%
Method: The ability of the compounds to inhibit the interaction between p53 and MDM2 proteins was measured by an HTRF (homogeneous time-resolved fluorescence) assay in which recombinant GST-tagged MDM2 binds to a peptide that resembles the MDM2-interacting region of p53. Binding of GST-MDM2 protein and p53-peptide (biotinylated on its N-terminal end) is registered by the FRET (fluorescence resonance energy transfer) between Europium (Eu)-labeled anti-GST antibody and streptavidin-conjugated Allophycocyanin (APC).
[…] Add 10 uL diluted compounds (1:5 dilution in reaction buffer) to each well, mix by shaking Add 20 uL biotinylated p53 peptide (180 nM working solution) in reaction buffer to each well and mix on shaker. Incubate at 37° C. for 1 h. Add 20 uL streptavidin-APC and Eu-anti-GST antibody mixture (6 nM Eu-anti-GST and 60 nM streptavidin-APC working solution) in TBS buffer with 0.2% BSA, shake at room temperature for 30 minutes and read using a TRF-capable plate reader at 665 and 615 nm (Victor 5; Perkin Elmer Wallac). If not specified, the reagents were purchased from Sigma Chemical Co.

Chain of interaction between p53 and MDM2 proteins (recombinant GST-tagged MDM2 / biotinylated p53 peptide) (Q00987 whole entry): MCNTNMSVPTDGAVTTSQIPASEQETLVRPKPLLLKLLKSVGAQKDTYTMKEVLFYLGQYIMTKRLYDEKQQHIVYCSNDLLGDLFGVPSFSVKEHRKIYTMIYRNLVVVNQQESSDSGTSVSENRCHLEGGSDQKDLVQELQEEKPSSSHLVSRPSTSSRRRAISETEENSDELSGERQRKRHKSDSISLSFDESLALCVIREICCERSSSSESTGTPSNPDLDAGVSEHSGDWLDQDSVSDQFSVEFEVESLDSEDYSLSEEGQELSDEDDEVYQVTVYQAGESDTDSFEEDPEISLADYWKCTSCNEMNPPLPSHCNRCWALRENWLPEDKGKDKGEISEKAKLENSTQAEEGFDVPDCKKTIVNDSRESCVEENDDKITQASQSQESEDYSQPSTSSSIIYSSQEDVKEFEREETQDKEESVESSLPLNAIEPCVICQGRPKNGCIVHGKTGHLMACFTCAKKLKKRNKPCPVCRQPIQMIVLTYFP

Point of comparison: `CC(C)(C)C[C@@H]1N(CCCc2ccc(C(=O)O)cc2)[C@@H](CO)[C@H](c2cccc(Cl)c2F)[C@@]1(C#N)c1ccc(Cl)cc1F` [Example 5, 4-{3-[(2S,3R,4S,5R)-4-(3-chloro-2-fluoro-phenyl)-3-(4-chloro-2-fluoro-phenyl)-3-cyano-2-(2,2-dimethyl-propyl)-5-hydroxymethyl-pyrrolidin-1-yl]-propyl}-benzoic acid], IC50 212 nM. Against it:
- CC(C)(C)C[C@@H]1N[C@@H](CO)[C@H](c2cccc(Cl)c2F)[C@@]1(C#N)c1ccc(Cl)cc1F [Example 7, (2S,3R,4S,5R)-4-(3-chloro-2-fluoro-phenyl)-3-(4-chloro-2-fluoro-phenyl)-2-(2,2-dimethyl-propyl)-5-hydroxymethyl-pyrrolidine-3-carbonitrile] — within 1.5-fold, 182 nM
- CCOC(=O)C1CC1CN1[C@@H](CC(C)(C)C)[C@](C#N)(c2ccc(Cl)cc2F)[C@@H](c2cccc(Cl)c2F)[C@@H]1CO (stereo partly drawn) [Example 8, 2-[(2S,3R,4S,5R)-4-(3-chloro-2-fluoro-phenyl)-3-(4-chloro-2-fluoro-phenyl)-3-cyano-2-(2,2-dimethyl-propyl)-5-hydroxymethyl-pyrrolidin-1-ylmethyl]-cyclopropanecarboxylic acid ethyl ester] — 11-fold higher, 2320 nM
- CC(C)(C)C[C@@H]1N(Cc2ccc(OCCO)cc2)[C@@H](CO)[C@H](c2cccc(Cl)c2F)[C@@]1(C#N)c1ccc(Cl)cc1F [Example 9, (2S,3R,4S,5R)-4-(3-chloro-2-fluoro-phenyl)-3-(4-chloro-2-fluoro-phenyl)-2-(2,2-dimethyl-propyl)-1-[4-(2-hydroxy-ethoxy)-benzyl]-5-hydroxymethyl-pyrrolidine-3-carbonitrile] — 10-fold higher, 2110 nM
- CC(C)(C)C[C@@H]1N(CC#C[Si](C)(C)C)[C@@H](CO)[C@H](c2cccc(Cl)c2F)[C@@]1(C#N)c1ccc(Cl)cc1F [Example 11, (2S,3R,4S,5R)-4-(3-Chloro-2-fluoro-phenyl)-3-(4-chloro-2-fluoro-phenyl)-2-(2,2-dimethyl-propyl)-5-hydroxymethyl-1-(3-trimethylsilanyl-prop-2-ynyl)-pyrrolidine-3-carbonitrile] — 5.1-fold higher, 1080 nM
- CC(C)(C)C[C@@H]1N[C@@H](CO)[C@H](c2cccc(Cl)c2)[C@@]1(C#N)c1ccc(Cl)cc1 (racemic) [Example 1, rac(2S,3R,4R,5R)-4-(3-chloro-phenyl)-3-(4-chloro-phenyl)-2-(2,2-dimethyl-propyl)-5-hydroxymethyl-pyrrolidine-3-carbonitrile] — 13-fold higher, 2860 nM
- CC(C)(C)C[C@@H]1N(CCCc2cn(C(c3ccccc3)(c3ccccc3)c3ccccc3)cn2)[C@@H](CO)[C@H](c2cccc(Cl)c2F)[C@@]1(C#N)c1ccc(Cl)cc1F [Example 17, (2S,3R,4S,5R)-4-(3-chloro-2-fluoro-phenyl)-3-(4-chloro-2-fluoro-phenyl)-2-(2,2-dimethyl-propyl)-5-hydroxymethyl-1-[3-(1-trityl-1H-imidazol-4-yl)-propyl]-pyrrolidine-3-carbonitrile] — within 1.5-fold, 215 nM
- CC(C)(C)C[C@@H]1N(CC[C@@H](O)[C@H](O)[C@H](O)CO)[C@@H](CO)[C@H](c2cccc(Cl)c2F)[C@@]1(C#N)c1ccc(Cl)cc1F (racemic) [Example 4, rac(2S,3R,4S,5R)-4-(3-chloro-2-fluoro-phenyl)-3-(4-chloro-2-fluoro-phenyl)-2-(2,2-dimethyl-propyl)-5-hydroxymethyl-1-((3R,4S,5R)-3,4,5,6-tetrahydroxy-hexyl)-pyrrolidine-3-carbonitrile] — within 1.5-fold, 164 nM
- CC(C)(C)C[C@@H]1N(CC[C@@H](O)[C@H](O)[C@H](O)CO)[C@@H](CO)[C@H](c2cccc(Cl)c2)[C@@]1(C#N)c1ccc(Cl)cc1 (racemic) [Example 2, rac(2S,3R,4R,5R)-4-(3-chloro-phenyl)-3-(4-chloro-phenyl)-2-(2,2-dimethyl-propyl)-5-hydroxymethyl-1-((3R,4S,5R)-3,4,5,6-tetrahydroxy-hexyl)-pyrrolidine-3-carbonitrile] — 3.5-fold higher, 740 nM
- CCOC(=O)c1ccc(CCCN2[C@@H](CC(C)(C)C)[C@](C#N)(c3ccc(Cl)cc3F)[C@@H](c3cccc(Cl)c3F)[C@@H]2CO)cc1 [Example 6, 4-{3-[(2S,3R,4S,5R)-4-(3-chloro-2-fluoro-phenyl)-3-(4-chloro-2-fluoro-phenyl)-3-cyano-2-(2,2-dimethyl-propyl)-5-hydroxymethyl-pyrrolidin-1-yl]-propyl}-benzoic acid ethyl ester] — 19-fold higher, 4130 nM
- CC(C)(C)C[C@@H]1N(CCCc2ccc(C(N)=O)cc2)[C@@H](CO)[C@H](c2cccc(Cl)c2F)[C@@]1(C#N)c1ccc(Cl)cc1F [Example 12, 4-{3-[(2S,3R,4S,5R)-4-(3-chloro-2-fluoro-phenyl)-3-(4-chloro-2-fluoro-phenyl)-3-cyano-2-(2,2-dimethyl-propyl)-5-hydroxymethyl-pyrrolidin-1-yl]-propyl}-benzamide trifluoroacetate salt] — 7.2-fold higher, 1520 nM
- (1S,2S)-2-[(2S,3R,4S,5R)-4-(3-chloro-2-fluoro-phenyl)-3-(4-chloro-2-fluoro-phenyl)-3-cyano-2-(2,2-dimethyl-propyl)-5-hydroxymethyl-pyrrolidin-1-ylmethyl]-cyclopropanecarboxylic acid [Example 10b] — within 1.5-fold, 242 nM
- CC(C)(C)C[C@@H]1N[C@@H](CO)[C@H](c2cccc(Cl)c2F)[C@@]1(C#N)c1ccc(Cl)cc1F (racemic) [Example 3, rac(2S,3R,4S,5R)-4-(3-chloro-2-fluoro-phenyl)-3-(4-chloro-2-fluoro-phenyl)-2-(2,2-dimethyl-propyl)-5-hydroxymethyl-pyrrolidine-3-carbonitrile] — 4.6-fold higher, 971 nM
- Cc1ccc(CCCN2[C@@H](CC(C)(C)C)[C@](C#N)(c3ccc(Cl)cc3F)[C@@H](c3cccc(Cl)c3F)[C@@H]2CO)o1 [Example 13, (2S,3R,4S,5R)-4-(3-chloro-2-fluoro-phenyl)-3-(4-chloro-2-fluoro-phenyl)-2-(2,2-dimethyl-propyl)-5-hydroxymethyl-1-[3-(5-methyl-furan-2-yl)-propyl]-pyrrolidine-3-carbonitrile trifluoroacetate salt] — 7.9-fold higher, 1670 nM
- COC(=O)c1ccc(C#CCN2[C@@H](CC(C)(C)C)[C@](C#N)(c3ccc(Cl)cc3F)[C@@H](c3cccc(Cl)c3F)[C@@H]2CO)cc1F [Example 15, 4-{3-[(2S,3R,4S,5R)-4-(3-chloro-2-fluoro-phenyl)-3-(4-chloro-2-fluoro-phenyl)-3-cyano-2-(2,2-dimethyl-propyl)-5-hydroxymethyl-pyrrolidin-1-yl]-prop-1-ynyl}-2-fluoro-benzoic acid methyl ester] — 4.2-fold higher, 887 nM
- C#CCN1[C@@H](CC(C)(C)C)[C@](C#N)(c2ccc(Cl)cc2F)[C@@H](c2cccc(Cl)c2F)[C@@H]1CO [Example 14, (2S,3R,4S,5R)-4-(3-chloro-2-fluoro-phenyl)-3-(4-chloro-2-fluoro-phenyl)-2-(2,2-dimethyl-propyl)-5-hydroxymethyl-1-prop-2-ynyl-pyrrolidine-3-carbonitrile] — 11-fold higher, 2360 nM
- CC(C)(C)C[C@@H]1N(CC#Cc2ccc(C(=O)O)c(F)c2)[C@@H](CO)[C@H](c2cccc(Cl)c2F)[C@@]1(C#N)c1ccc(Cl)cc1F [Example 18, 4-{3-[(2S,3R,4S,5R)-4-(3-chloro-2-fluoro-phenyl)-3-(4-chloro-2-fluoro-phenyl)-3-cyano-2-(2,2-dimethyl-propyl)-5-hydroxymethyl-pyrrolidin-1-yl]-prop-1-ynyl}-2-fluoro-benzoic acid] — 3-fold lower, 70.8 nM
- CC(C)(C)C[C@@H]1N(C[C@@H]2C[C@H]2C(=O)O)[C@@H](CO)[C@H](c2cccc(Cl)c2F)[C@@]1(C#N)c1ccc(Cl)cc1F [Example 10a, (1R,2R)-2-[(2S,3R,4S,5R)-4-(3-chloro-2-fluoro-phenyl)-3-(4-chloro-2-fluoro-phenyl)-3-cyano-2-(2,2-dimethyl-propyl)-5-hydroxymethyl-pyrrolidin-1-ylmethyl]-cyclopropanecarboxylic acid] — 2.4-fold lower, 87 nM
- CC(C)(C)C[C@@H]1N(CCCC2CCOCC2)[C@@H](CO)[C@H](c2cccc(Cl)c2F)[C@@]1(C#N)c1ccc(Cl)cc1F [Example 16, (2S,3R,4S,5R)-4-(3-chloro-2-fluoro-phenyl)-3-(4-chloro-2-fluoro-phenyl)-2-(2,2-dimethyl-propyl)-5-hydroxymethyl-1-[3-(tetrahydro-pyran-4-yl)-propyl]-pyrrolidine-3-carbonitrile] — 2.3-fold higher, 489 nM
